Source: ChEMBL document CHEMBL1139989, “Aminosuberoyl hydroxamic acids (ASHAs): a potent new class of HDAC inhibitors” (Bioorg Med Chem Lett, 2007)
One block for each compound: values may come before it.

Columns and labels:
Histone deacetylase 1 = Histone deacetylase 1 (Homo sapiens, UniProt Q13547); test: Inhibition of human HDAC 1
[1] = Antiproliferative activity against mouse SC9 cells by MTS assay; type: functional, cell-based
Mus musculus = species: Mus musculus; test: Decrease in body weight in nude mouse; type: functional; parameters: scale not given: the % may be the effect or the level left
HCT-116 = test: Antitumor activity against human HCT116 cells; type: functional

Chain of Histone deacetylase 1 (Q13547 whole entry): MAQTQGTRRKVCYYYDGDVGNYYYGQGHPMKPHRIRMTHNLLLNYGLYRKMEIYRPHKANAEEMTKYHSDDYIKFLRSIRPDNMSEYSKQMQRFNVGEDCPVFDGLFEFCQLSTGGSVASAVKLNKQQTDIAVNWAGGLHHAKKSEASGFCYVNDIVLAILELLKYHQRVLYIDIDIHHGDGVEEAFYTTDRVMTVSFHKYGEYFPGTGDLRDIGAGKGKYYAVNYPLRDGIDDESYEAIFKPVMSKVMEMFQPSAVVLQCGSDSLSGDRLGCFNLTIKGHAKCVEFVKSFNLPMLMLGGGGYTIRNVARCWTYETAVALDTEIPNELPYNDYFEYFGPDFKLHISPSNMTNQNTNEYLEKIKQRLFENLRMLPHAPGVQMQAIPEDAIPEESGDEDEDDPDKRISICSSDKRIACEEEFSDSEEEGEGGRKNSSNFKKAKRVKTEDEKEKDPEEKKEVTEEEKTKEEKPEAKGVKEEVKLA

Structure (SMILES): O=C(CCCCC[C@H](NC(=O)OCc1ccccc1)C(=O)Nc1cccc2cccnc12)NO
- IC50 (Histone deacetylase 1): 14.5 nM
- IC50 [1]: 39 nM

Structure (SMILES): O=C(CCCCC[C@H](NC(=O)c1ccc2ccccc2n1)C(=O)Nc1cccc2cccnc12)NO
- IC50 [1]: 165 nM

Structure (SMILES): O=C(CCCCC[C@H](NC(=O)c1ccccc1)C(=O)NCc1ccccc1)NO
- IC50 (Histone deacetylase 1): 93 nM
- IC50 [1]: 1040 nM

Structure (SMILES): O=C(CCCCC[C@H](NC(=O)c1ccccn1)C(=O)NCc1ccccc1)NO
- IC50 (Histone deacetylase 1): 120 nM
- IC50 [1]: 3420 nM

Structure (SMILES): O=C(CCCCC[C@H](NC(=O)OCc1ccccc1)C(=O)Nc1ccccc1)NO
- IC50 (Histone deacetylase 1): 18 nM
- IC50 [1]: 102 nM

Structure (SMILES): O=C(CCCCC[C@H](NC(=O)OCc1ccccc1)C(=O)NCc1ccccc1)NO
- IC50 (Histone deacetylase 1): 48 nM
- IC50 [1]: 412 nM

Structure (SMILES): O=C(CCCCC[C@H](NC(=O)c1ccccc1)C(=O)Nc1ccccc1)NO
- IC50 (Histone deacetylase 1): 12.1 nM
- IC50 [1]: 73 nM

Structure (SMILES): O=C(CCCCC[C@H](NC(=O)c1ccc2ccccc2n1)C(=O)NCc1ccccc1)NO
- IC50 (Histone deacetylase 1): 51.3 nM
- IC50 [1]: 374 nM

Structure (SMILES): O=C(CCCCC[C@H](NC(=O)c1ccc2ccccc2n1)C(=O)Nc1ccc2ncccc2c1)NO
- IC50 [1]: 107 nM

The next lines start with results.

- IC50 (Histone deacetylase 1): 3.5 nM
Structure (SMILES): O=C(CCCCC[C@H](NC(=O)c1ccccc1)C(=O)Nc1ccc2ncccc2c1)NO
- IC50 [1]: 90 nM

- IC50 (Histone deacetylase 1): 7.7 nM
Structure (SMILES): O=C(CCCCC[C@H](NC(=O)OCc1ccccc1)C(=O)Nc1ccc2ncccc2c1)NO
- IC50 [1]: 110 nM

- IC50 (Histone deacetylase 1): 9.4 nM
Structure (SMILES): O=C(CCCCC[C@H](NC(=O)c1ccccc1)C(=O)Nc1cccc2cccnc12)NO
- Activity (Mus musculus): <20%
- TGI (HCT-116): >=50%
- IC50 [1]: 43 nM

- IC50 (Histone deacetylase 1): 10 nM
Structure (SMILES): O=C(CCCCC[C@H](NC(=O)c1ccc2ccccc2n1)C(=O)Nc1ccccc1)NO
- IC50 [1]: 33 nM

- IC50 (Histone deacetylase 1): 4 nM
Structure (SMILES): O=C(CCCCC[C@H](NC(=O)c1ccccn1)C(=O)Nc1cccc2cccnc12)NO
- IC50 [1]: 367 nM

- IC50 (Histone deacetylase 1): 1.3 nM
Structure (SMILES): O=C(CCCCC[C@H](NC(=O)c1ccccn1)C(=O)Nc1ccc2ncccc2c1)NO
- IC50 [1]: 756 nM

- IC50 (Histone deacetylase 1): 11.1 nM
Structure (SMILES): O=C(CCCCC[C@H](NC(=O)c1ccccn1)C(=O)Nc1ccccc1)NO
- Activity (Mus musculus): <20%
- TGI (HCT-116): >=50%
- IC50 [1]: 250 nM
